# Molecular target: T1, human NK2 receptor (Homo sapiens, UniProt P21452)
# T1 construct: purchased Perkin Elmer biosignal Inc. 6110510
# T1 sequence (P21452 1-398): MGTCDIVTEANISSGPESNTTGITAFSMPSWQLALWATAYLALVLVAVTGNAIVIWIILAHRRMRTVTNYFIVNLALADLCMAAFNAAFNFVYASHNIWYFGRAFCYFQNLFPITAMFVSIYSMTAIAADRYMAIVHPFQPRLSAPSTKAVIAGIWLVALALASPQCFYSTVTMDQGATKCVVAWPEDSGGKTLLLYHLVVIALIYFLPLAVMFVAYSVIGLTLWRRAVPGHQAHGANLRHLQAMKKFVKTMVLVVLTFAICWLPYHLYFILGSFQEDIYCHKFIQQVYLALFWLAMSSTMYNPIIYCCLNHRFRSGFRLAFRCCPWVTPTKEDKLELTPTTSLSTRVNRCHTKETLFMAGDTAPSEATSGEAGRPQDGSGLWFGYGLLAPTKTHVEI
# Assay: [3H]SR48968 competition binding assay
# Settings: [3H]SR48968 displacement, membranes of CHO cells stably expressing recombinant human NK2 receptor; Ki from IC50 by Cheng-Prussoff
# Outline: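 Membranes from CHO cells stably expressing recombinant human NK2 were incubated 75 min at RT with [3H]SR48968 at its KD and 10 compound concentrations (0.0003–10 μM) in Tris-HCl pH 7.4, MnCl2, chymostatin, BSA. Filter-bound radioactivity was counted; Hill-fitted IC50 converted to Ki via Cheng-Prusoff.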
row,Structure (SMILES),Ki
1,"CN(C(=O)c1ccc(Cl)nc1)[C@@H]1CN(C(=O)c2ccc(C#N)cc2)C[C@H]1c1ccc(Cl)c(Cl)c1 (racemic) [Example 78, rac-6-Chloro-N-[(3S,4R)-1-(4-cyano-benzoyl)-4-(3,4-dichloro-phenyl)-pyrrolidin-3-yl]-N-methyl-nicotinamide]",7.8 nM
2,"CN(C(=O)c1ccc(C#N)nc1)[C@@H]1CN(C(=O)c2ccc(C#N)cc2)C[C@H]1c1ccc(Cl)c(Cl)c1 (racemic) [Example 80, rac-6-Cyano-N-[(3S,4R)-1-(4-cyano-benzoyl)-4-(3,4-dichloro-phenyl)-pyrrolidin-3-yl]-N-methyl-nicotinamide]",40 nM
3,"CN(C(=O)c1ccc(C(F)(F)F)nc1)[C@@H]1CN(C(=O)c2ccc(C#N)cc2)C[C@H]1c1ccc(Cl)c(Cl)c1 (racemic) [Example 81, rac-N-[(3S,4R)-1-(4-Cyano-benzoyl)-4-(3,4-dichloro-phenyl)-pyrrolidin-3-yl]-N-methyl-6-trifluoromethyl-nicotinamide]",5.8 nM
4,"CN(C(=O)c1ccc(OCC(F)(F)F)nc1)[C@@H]1CN(C(=O)c2ccc(C#N)cc2)C[C@H]1c1ccc(Cl)c(Cl)c1 (racemic) [Example 82, rac-N-[(3S,4R)-1-(4-Cyano-benzoyl)-4-(3,4-dichloro-phenyl)-pyrrolidin-3-yl]-N-methyl-6-(2,2,2-trifluoro-ethoxy)-nicotinamide]",11.7 nM
5,"Cc1cncc(C(=O)N(C)[C@@H]2CN(C(=O)c3ccc(C#N)cc3)C[C@H]2c2ccc(Cl)c(Cl)c2)c1 (racemic) [Example 83, rac-N-[(3S,4R)-1-(4-Cyano-benzoyl)-4-(3,4-dichloro-phenyl)-pyrrolidin-3-yl]-5,N-dimethyl-nicotinamide]",97.1 nM
6,"CN(C(=O)c1ccc(F)nc1)[C@@H]1CN(C(=O)c2ccc(C#N)cc2)C[C@H]1c1ccc(Cl)c(Cl)c1 (racemic) [Example 85, rac-N-[(3S,4R)-1-(4-Cyano-benzoyl)-4-(3,4-dichloro-phenyl)-pyrrolidin-3-yl]-6-fluoro-N-methyl-nicotinamide]",82.1 nM
7,"COc1ccc(C(=O)N(C)[C@@H]2CN(C(=O)c3ccc(C#N)cc3)C[C@H]2c2ccc(Cl)c(Cl)c2)cn1 (racemic) [Example 86, rac-N-[(3S,4R)-1-(4-Cyano-benzoyl)-4-(3,4-dichloro-phenyl)-pyrrolidin-3-yl]-6-methoxy-N-methyl-nicotinamide]",17.8 nM
8,"COc1ccc(C(=O)N(C)[C@H]2CN(C(=O)C3CCN(C(=O)C4(C)CC4)CC3)C[C@@H]2c2ccc(Cl)cc2)cc1C(F)(F)F (racemic) [Example 87, N-{(3RS,4SR)-4-(4-Chloro-phenyl)-1-[1-(1-methyl-cyclopropanecarbonyl)-piperidine-4-carbonyl]-pyrrolidin-3-yl}-4-methoxy-N-methyl-3-trifluoromethyl-benzamide]",0.8 nM
9,"COc1ccc(C(=O)N(C)[C@H]2CN(C(=O)c3ccc(F)cc3)C[C@@H]2c2ccc(Cl)cc2)cc1C(F)(F)F (racemic) [Example 88, N-[(3RS,4SR)-4-(4-Chloro-phenyl)-1-(4-fluoro-benzoyl)-pyrrolidin-3-yl]-4-methoxy-N-methyl-3-trifluoromethyl-benzamide]",17.8 nM
10,"COc1ccc(C(=O)N(C)[C@H]2CN(C(=O)c3ccc(F)cc3C)C[C@@H]2c2ccc(Cl)cc2)cc1C(F)(F)F (racemic) [Example 89, N-[(3RS,4SR)-4-(4-Chloro-phenyl)-1-(4-fluoro-2-methyl-benzoyl)-pyrrolidin-3-yl]-4-methoxy-N-methyl-3-trifluoromethyl-benzamide]",23.3 nM
11,"COc1ccc(C(=O)N(C)[C@H]2CN(C(=O)c3ccc(C#N)nc3)C[C@@H]2c2ccc(Cl)cc2)cc1C(F)(F)F (racemic) [Example 90, N-[(3RS,4SR)-4-(4-Chloro-phenyl)-1-(6-cyano-pyridine-3-carbonyl)-pyrrolidin-3-yl]-4-methoxy-N-methyl-3-trifluoromethyl-benzamide]",11.7 nM
12,"COc1ccc(C(=O)N(C)[C@H]2CN(C(=O)c3ccc(C#N)cc3)C[C@@H]2c2ccc(Cl)cc2)cc1C(F)(F)F (racemic) [Example 92, N-[(3RS,4SR)-4-(4-Chloro-phenyl)-1-(4-cyano-benzoyl)-pyrrolidin-3-yl]-4-methoxy-N-methyl-3-trifluoromethyl-benzamide]",13.9 nM
13,"COc1ccc(C(=O)N(C)[C@H]2CN(C(=O)C3CCN(C(=O)OC(C)(C)C)CC3)C[C@@H]2c2ccc(Cl)cc2)cc1C(F)(F)F (racemic) [Example 95, 4-{(3SR,4RS)-3-(4-Chloro-phenyl)-4-[(4-methoxy-3-trifluoromethyl-benzoyl)-methyl-amino]-pyrrolidine-1-carbonyl}-piperidine-1-carboxylic acid tert-butyl ester]",2.2 nM
14,"COc1ccc(C(=O)N(C)[C@H]2CN(C(=O)C3CCN(C(=O)C4(C)CC4)CC3)C[C@@H]2c2ccc(Cl)c(Cl)c2)cc1C(F)(F)F (racemic) [Example 96, N-{(3RS,4SR)-4-(3,4-Dichloro-phenyl)-1-[1-(1-methyl-cyclopropanecarbonyl)-piperidine-4-carbonyl]-pyrrolidin-3-yl}-4-methoxy-N-methyl-3-trifluoromethyl-benzamide]",0.8 nM
15,"CN(C(=O)c1ccc(Cl)c(C(F)(F)F)c1)[C@H]1CN(C(=O)C2CCN(C(=O)C3(C)CC3)CC2)C[C@@H]1c1ccc(Cl)c(Cl)c1 (racemic) [Example 97, 4-Chloro-N-{(3RS,4SR)-4-(3,4-dichloro-phenyl)-1-[1-(1-methyl-cyclopropanecarbonyl)-piperidine-4-carbonyl]-pyrrolidin-3-yl}-N-methyl-3-trifluoromethyl-benzamide]",0.7 nM
16,"CN(C(=O)c1ccc(F)c(OC(F)(F)F)c1)[C@H]1CN(C(=O)C2CCN(C(=O)C3(C)CC3)CC2)C[C@@H]1c1ccc(Cl)c(Cl)c1 (racemic) [Example 98, N-{(3RS,4SR)-4-(3,4-Dichloro-phenyl)-1-[1-(1-methyl-cyclopropanecarbonyl)-piperidine-4-carbonyl]-pyrrolidin-3-yl}-4-fluoro-N-methyl-3-trifluoromethoxy-benzamide]",0.9 nM
17,"COc1cc(C(=O)N(C)[C@H]2CN(C(=O)C3CCN(C(=O)C4(C)CC4)CC3)C[C@@H]2c2ccc(Cl)c(Cl)c2)ccc1Cl (racemic) [Example 99, 4-Chloro-N-{(3RS,4SR)-4-(3,4-dichloro-phenyl)-1-[1-(1-methyl-cyclopropanecarbonyl)-piperidine-4-carbonyl]-pyrrolidin-3-yl}-3-methoxy-N-methyl-benzamide]",0.9 nM
18,"CN(C(=O)c1ccc(F)cc1)[C@H]1CN(C(=O)C2CCN(C(=O)C3(C)CC3)CC2)C[C@@H]1c1ccc(Cl)c(Cl)c1 (racemic) [Example 100, N-{(3RS,4SR)-4-(3,4-Dichloro-phenyl)-1-[1-(1-methyl-cyclopropanecarbonyl)-piperidine-4-carbonyl]-pyrrolidin-3-yl}-4-fluoro-N-methyl-benzamide]",2.3 nM
19,"CN(C(=O)Cc1ccc(F)cc1)[C@H]1CN(C(=O)C2CCN(C(=O)C3(C)CC3)CC2)C[C@@H]1c1ccc(Cl)c(Cl)c1 (racemic) [Example 101, N-{(3RS,4SR)-4-(3,4-Dichloro-phenyl)-1-[1-(1-methyl-cyclopropanecarbonyl)-piperidine-4-carbonyl]-pyrrolidin-3-yl}-2-(4-fluoro-phenyl)-N-methyl-acetamide]",16.2 nM
20,"CN(C(=O)CCc1ccc(F)cc1)[C@H]1CN(C(=O)C2CCN(C(=O)C3(C)CC3)CC2)C[C@@H]1c1ccc(Cl)c(Cl)c1 (racemic) [Example 102, N-{(3RS,4SR)-4-(3,4-Dichloro-phenyl)-1-[1-(1-methyl-cyclopropanecarbonyl)-piperidine-4-carbonyl]-pyrrolidin-3-yl}-3-(4-fluoro-phenyl)-N-methyl-propionamide]",2.4 nM
21,"COc1ccc(C(=O)N(C)[C@H]2CN(C(=O)C3CCNCC3)C[C@@H]2c2ccc(Cl)cc2)cc1C(F)(F)F (racemic) [Example 103, N-[(3RS,4SR)-4-(4-Chloro-phenyl)-1-(piperidine-4-carbonyl)-pyrrolidin-3-yl]-4-methoxy-N-methyl-3-trifluoromethyl-benzamide]",7 nM
22,"COc1ccc(C(=O)N(C)[C@H]2CN(C(=O)C3CCN(C(C)C)CC3)C[C@@H]2c2ccc(Cl)cc2)cc1C(F)(F)F (racemic) [Example 104, N-[(3RS,4SR)-4-(4-Chloro-phenyl)-1-(1-isopropyl-piperidine-4-carbonyl)-pyrrolidin-3-yl]-4-methoxy-N-methyl-3-trifluoromethyl-benzamide]",4.1 nM
23,"COc1ccc(C(=O)N(C)[C@H]2CN(C(=O)C3CCN(CC4CC4)CC3)C[C@@H]2c2ccc(Cl)cc2)cc1C(F)(F)F (racemic) [Example 105, N-[(3RS,4SR)-4-(4-Chloro-phenyl)-1-(1-cyclopropylmethyl-piperidine-4-carbonyl)-pyrrolidin-3-yl]-4-methoxy-N-methyl-3-trifluoromethyl-benzamide]",0.8 nM
24,"CN(C(=O)c1ccc(Cl)cn1)[C@H]1CN(C(=O)C2CCN(C(=O)C3(C)CC3)CC2)C[C@@H]1c1ccc(Cl)c(Cl)c1 (racemic) [Example 108, 5-Chloro-pyridine-2-carboxylic acid {(3RS,4SR)-4-(3,4-dichloro-phenyl)-1-[1-(1-methyl-cyclopropanecarbonyl)-piperidine-4-carbonyl]-pyrrolidin-3-yl}-methyl-amide]",2.6 nM
